From the supplement of paper PMC10307832

Assays:
Test in all cases: relative viability (nuclei count vs DMSO), 5 days (fraction); higher = more cells survive
[1] = compound: C1/C(=C\C2=CC=CS2)/C(=O)/C(=C/C3=CC=CS3)/C1 + Nc1nc2[nH]cc(CCc3ccc(C(=O)N[C@@H](CCC(=O)O)C(=O)O)cc3)c2c(=O)[nH]1 [Pemetrexed] (partner 0.2 µM)
Summary of the method: (§1)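 The day after seeding in 1536-well plates, lung cancer cell lines were treated by pin tool with a single drug, or with a fixed anchor-drug dose together with five library-drug doses (not always all listed) in √10 steps. After 5 days, a combined fix-and-stain solution (final 0.05% Triton X-100, 1% formaldehyde, 1 ug/ml Hoechst) was added. Nuclei counted on 4× images gave relative viability as treated counts over vehicle counts, reported as the median of duplicate plates.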

TPCA-1 + AZD7762 = compound: C1=CC(=CC=C1C2=CC(=C(S2)NC(=O)N)C(=O)N)F [TPCA-1] + NC(=O)Nc1cc(-c2cccc(F)c2)sc1C(=O)N[C@H]1CCCNC1 [AZD7762] (partner 0.2 µM)
Summary of the method: as §1

Lestaurtinib + Foretinib = compound: C[C@]12O[C@H](C[C@]1(O)CO)n1c3ccccc3c3c4c(c5c6ccccc6n2c5c31)CNC4=O [Lestaurtinib] + COc1cc2c(Oc3ccc(NC(=O)C4(C(=O)Nc5ccc(F)cc5)CC4)cc3F)ccnc2cc1OCCCN1CCOCC1 [Foretinib] (partner 0.25 µM)
Summary of the method: as §1

Lestaurtinib + Dasatinib = compound: C[C@]12O[C@H](C[C@]1(O)CO)n1c3ccccc3c3c4c(c5c6ccccc6n2c5c31)CNC4=O [Lestaurtinib] + Cc1nc(Nc2ncc(C(=O)Nc3c(C)cccc3Cl)s2)cc(N2CCN(CCO)CC2)n1 [Dasatinib] (partner 0.075 µM)
Summary of the method: as §1

Cell Line | relative viability ([1]; first compound 0.2 µM) | relative viability ([1]; first compound 0.6325 µM) | relative viability ([1]; first compound 2 µM) | relative viability ([1]; first compound 6.325 µM) | relative viability ([1]; first compound 20 µM) | relative viability (TPCA-1 + AZD7762; first compound 0.04 µM) | relative viability (TPCA-1 + AZD7762; first compound 0.1265 µM) | relative viability (TPCA-1 + AZD7762; first compound 0.4 µM) | relative viability (TPCA-1 + AZD7762; first compound 1.265 µM) | relative viability (TPCA-1 + AZD7762; first compound 4 µM) | relative viability (Lestaurtinib + Foretinib; first compound 0.005 µM) | relative viability (Lestaurtinib + Foretinib; first compound 0.01581 µM) | relative viability (Lestaurtinib + Foretinib; first compound 0.05 µM) | relative viability (Lestaurtinib + Foretinib; first compound 0.1581 µM) | relative viability (Lestaurtinib + Foretinib; first compound 0.5 µM) | relative viability (Lestaurtinib + Dasatinib; first compound 0.005 µM) | relative viability (Lestaurtinib + Dasatinib; first compound 0.01581 µM) | relative viability (Lestaurtinib + Dasatinib; first compound 0.05 µM) | relative viability (Lestaurtinib + Dasatinib; first compound 0.1581 µM) | relative viability (Lestaurtinib + Dasatinib; first compound 0.5 µM)
BEN | 0.82 | 0.781 | 1.03 | 0.662 | 0.657 | 0.677 | 0.665 | 0.9 | 1.08 | 0.505 | 0.728 | 0.803 | 0.478 | 0.559 | 0.224 | 0.3 | 0.322 | 0.265 | 0.313 | 0.184
NCI-H3122 | 0.195 | 0.213 | 0.206 | 0.191 | 0.206 | 1.1 | 0.97 | 1.04 | 0.941 | 0.957 | 1.06 | 0.984 | 1.01 | 1.03 | 0.793 | 0.881 | 0.871 | 0.869 | 1.15 | 0.598
HOP-62 | 0.307 | 0.316 | 0.248 | 0.243 | 0.342 | 0.554 | 0.557 | 0.669 | 0.523 | 0.436 | 1.15 | 1.33 | 1.08 | 1.06 | 0.343 | 0.66 | 0.721 | 0.504 | 0.499 | 0.241
HCC-366 | 0.168 | 0.169 | 0.156 | 0.116 | 0.172 | – | 0.297 | 0.312 | 0.185 | 0.147 | 0.939 | 0.924 | 0.994 | 1.03 | 0.536 | 0.74 | 0.659 | 0.518 | 0.516 | 0.185
NCI-H2347 | 0.44 | 0.429 | 0.478 | 0.448 | 0.426 | 0.729 | 0.717 | 0.923 | 0.739 | 0.633 | 1.18 | 1.38 | 0.865 | 0.98 | 0.598 | 0.278 | 0.15 | 0.319 | 0.252 | 0.253
LXF-289 | 0.911 | 0.839 | 0.889 | 0.858 | 0.852 | 1.1 | 1.09 | 1.1 | 1.07 | 0.774 | 1.02 | 1.04 | 0.827 | 0.905 | 0.198 | 0.21 | 0.275 | 0.146 | 0.154 | 0.0882
NCI-H1793 | 0.973 | 0.711 | 1.03 | 0.796 | 0.914 | 0.53 | 0.649 | 0.751 | 0.392 | 0.144 | 0.684 | 0.702 | 0.436 | 0.574 | 0.39 | 0.431 | 0.392 | 0.316 | 0.361 | 0.271
LU99A | 0.217 | 0.185 | 0.172 | 0.17 | 0.164 | 0.356 | 0.364 | 0.412 | 0.281 | 0.247 | 0.733 | 0.73 | 0.575 | 0.469 | 0.247 | 0.518 | 0.528 | 0.387 | 0.298 | 0.215
PC-14 | 0.145 | 0.166 | 0.136 | 0.131 | 0.142 | 0.471 | 0.305 | 0.374 | 0.696 | 0.43 | 0.963 | 1.09 | 0.619 | 0.517 | 0.687 | 0.294 | 0.286 | 0.231 | 0.13 | 0.0741
NCI-H2085 | 0.963 | 0.909 | 0.96 | 0.857 | 0.939 | – | 1.02 | 1.01 | 0.9 | 0.669 | 1.01 | 0.885 | 0.801 | 1.05 | 0.826 | 0.236 | 0.265 | 0.3 | 0.335 | 0.496
NCI-H2170 | 0.283 | 0.246 | 0.259 | 0.245 | 0.256 | 1.13 | 0.815 | 0.892 | 0.766 | 0.474 | 0.969 | 1.02 | 0.907 | 0.962 | 0.358 | 0.493 | 0.551 | 0.466 | 0.364 | 0.376
HCC-78 | 0.923 | 0.817 | 0.862 | 0.921 | 0.862 | 0.745 | 0.742 | 0.801 | 0.545 | 0.497 | 0.51 | 0.494 | 0.524 | 0.545 | 0.308 | 0.341 | 0.669 | 0.294 | 0.25 | 0.218
NCI-H1395 | 0.889 | 0.912 | 1.08 | 0.819 | 0.971 | 0.398 | 0.378 | 0.381 | 0.37 | 0.444 | 1.01 | 0.911 | 0.861 | 0.824 | 0.479 | 0.423 | 0.402 | 0.398 | 0.373 | 0.363
NCI-H2126 | 0.677 | 0.681 | 0.789 | 0.58 | 0.714 | 0.996 | 0.936 | 1.03 | 0.978 | 0.87 | 1.19 | 1.31 | 1.1 | 1.1 | 0.926 | 0.678 | 0.759 | 0.59 | 0.624 | 0.463
